Patent US20220267352A1, “RAPAMYCIN ANALOGS AND USES THEREOF” (Anakuria Therapeutics, Inc., priority 2021, published 2022)

Assays:
[1] = test system: human adipocytes; set-up: dose or concentration left out as unconfirmed; conditions: therapeutic concentration; cited from earlier work
[2] = test system: Lmna−/− mice; conditions: short-term treatment; cited from earlier work
[3] = test system: PC3 cells; conditions: 1 or 24 hour treatment; cited from earlier work
[4] = test system: p-p70 S6 Kinase (Thr389) in MCF-7 cells; test: AlphaLISA Ultra pS6K1 assay; type: cell-based; conditions: Homo sapiens, 1.5 h; MCF7 cells, 90 min
Summary of the method: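 MCF-7 cells seeded 20–24 h, given fresh medium 2 h, then treated with compounds 90 min (0.5% DMSO final). Cells lysed, lysates frozen at −80 °C, then Thr389-phosphorylated S6K1 detected by AlphaLISA Ultra with acceptor beads 2 h, then donor beads 2 h.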

[5] = test system: pS6K1 T389 and pAkt S473 in PC3 cells; test: Western blot based pS6K1 and pAKT assay at 24 and 48 hour timepoints; type: cell-based
Summary of the method: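 PC3 cells (500,000/well) were treated with compound for 24 to 48 h, then lysed in 1% Triton buffer. Equal protein from Bradford-normalized lysates was analysed by Western blot for pS6K1 T389 and pAkt S473 with Li-Cor infrared detection.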

[6] = test system: p-Akt 1/2/3 (Ser473) in MCF-7 cells; test: AlphaLISA Ultra pAKT assay; type: cell-based; conditions: Homo sapiens, 1.5 h; MCF7 cells, 90 min
Summary of the method: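 MCF-7 cells (16,000˜20,000 per well in 36 μL medium) were seeded in Corning 3701 plates for 20˜24 hour, refreshed with new medium for 90 minutes, then given 12 μL of 4× compound (0.5% final DMSO). Cells were lysed with 2× lysis buffer, and lysate was analyzed by AlphaLISA Ultra pAKT using acceptor and donor beads, read on an EnSpire reader.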

[7] = test system: mTORC1 over mTORC2; test: mTORC1 over mTORC2 selectivity by comparing pS6K1 and pAKT IC50; type: cell-based; conditions: by comparing pS6K1 and pAKT IC50, 90 min
Summary of the method: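 MCF-7 cells were treated with compounds (0.5% final DMSO) for 90 minutes in one protocol and 2 hours in the other, then lysed. Phospho-signal in lysates was read by bead-based donor/acceptor proximity assay. pS6K1 and pAKT IC50 values were compared to judge mTORC1 over mTORC2 selectivity, at 90 min and at 24 hrs.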

| IC50 [4] [nM] | IC50 [6] [nM] | SMILES | AKT (PKB) Ser473 phosphorylation [1] | glucose uptake [1] | enhanced survival [2] [%] | Akt phosphorylation (S473) [3] | mTORC1 selective @ 24 hrs [5] | mTORC1 selective @ 90 min [7] |
| --- | --- | --- | --- | --- | --- | --- | --- | --- |
|  |  | CO[C@H]1C[C@@H]2CC[C@@H](C)[C@@](O)(O2)C(=O)C(=O)N2CCCC[C@H]2C(=O)O[C@H]([C@H](C)C[C@@H]2CC[C@@H](O)[C@H](OC)C2)CC(=O)[C@H](C)/C=C(\C)[C@@H](O)[C@@H](OC)C(=O)[C@H](C)C[C@H](C)/C=C/C=C/C=C/1C [rapamycin] | reduced AKT (PKB) Ser473 phosphorylation | reduced glucose uptake | ~50 | strongly decreased Akt phosphorylation |  |  |
| 1 to 10 | ≥ 1000 | CO[C@@H]1C[C@H](C[C@@H](C)[C@@H]2CC(=O)[C@H](C)/C=C(\C)[C@@H](O)[C@@H](OC)C(=O)[C@H](C)C[C@H](C)/C=C/C=C/C=C(\C)[C@@H](OC[C@@H]3COCCO3)C[C@@H]3CC[C@@H](C)[C@@](O)(O3)C(=O)C(=O)N3CCCC[C@H]3C(=O)O2)CC[C@H]1OCCO [I-85, (1R,9S,12S,15R,16E,18R,19R,21R,23S,24E,26E,28E,30S,32S,35R)-30-[[(2S)-1,4-dioxan-2-yl]methoxy]-1,18-dihydroxy-12-[(1R)-2-[(1S,3R,4R)-4-(2-hydroxyethoxy)-3-methoxy-cyclohexyl]-1-methyl-ethyl]-19-methoxy-15,17,21,23,29,35-hexamethyl-11,36-dioxa-4-azatricyclo[30.3.1.04,9]hexatriaconta-16,24,26,28-tetraene-2,3,10,14,20-pentone] |  |  |  |  | Yes | Yes |
| ≥ 1000 | ≥ 1000 | COCCO[C@@H]1CC[C@@H](C[C@@H](C)[C@@H]2CC(=O)[C@H](C)/C=C(\C)[C@@H](OC)[C@@H](OC)C(=O)[C@H](C)C[C@H](C)/C=C/C=C/C=C(\C)[C@@H](OCCOC3COC3)C[C@@H]3CC[C@@H](C)[C@@](O)(O3)C(=O)C(=O)N3CCCC[C@H]3C(=O)O2)C[C@H]1OC [I-83, (1R,9S,12S,15R,16E,18R,19R,21R,23S,24E,26E,28E,30S,32S,35R)-1-hydroxy-18,19-dimethoxy-12-[(1R)-2-[(1S,3R,4R)-3-methoxy-4-(2-methoxyethoxy)cyclohexyl]-1-methyl-ethyl]-15,17,21,23,29,35-hexamethyl-30-[2-(oxetan-3-yloxy)ethoxy]-11,36-dioxa-4-azatricyclo[30.3.1.0^4,9]hexatriaconta-16,24,26,28-tetraene-2,3,10,14,20-pentone] |  |  |  |  | No | No |
